Measurements as given in PMC7145288, “New Peptide-Based Pharmacophore Activates 20S Proteasome” (Molecules, 2020).

Columns and labels:
[1] = system: animal models of Alzheimer's disease; details: ref 15 (Chocron et al.); cited from earlier work
Text: In the light of significant proteasome-enhancing effects of TAT peptides observed both in cellulo (Figure 5 and [15]) and in vivo [15], there is a crucial question of how they influence proteolytic activity in the most widespread form of the proteasome, the 26S holoenzyme. The most-explored TAT compounds are proposed to dock in the α1/α2 pocket, which, alongside the α5/α6 pocket, is permanently occupied in all conformational forms of the 26S assembly. Therefore, activation of the core already decorated with two 19S modules seems excluded. Still, in our in vitro experiments, a signif ...

[2] = system: proteasome ChT-L activity in SK-N-SH (ATCC HTB-11) cell lysates; assay: ChT-L proteasome activity in lysates of treated SK-N-SH cells; type: cell-based, human; details: SK-N-SH cells; for Proteasome ChT-L activity in lysates of treated cells versus control lysates (in words): 1 µM peptide, 24 h, 1 μg lysate, 50 μM Suc-LLVY-AMC, n = 3–4
Experimental: […] The content of live cells was determined by the Trypan Blue-exclusion assay. The cells were harvested, washed twice in PBS, resuspended in dilution buffer (see above) and stored in −80 °C. To prepare lysates the thawed preparations were vortexed with glass beads and centrifuged for 5 min 5000× g (4 °C). The supernatant was centrifuged for 20 min 14,000× g (4 °C). The resulting supernatant—“crude lysate” was diluted to 1 mg/mL of total protein with dilution buffer. 1 μg of lysate per assay (reaction buffer: 50 mM Tris/HCl pH 8, 0.1 mM MgCl2, 0.2 mM ATP, 0.1 mM dithiothreitol, 50 μM Suc-LLVY-AMC) was used for determination of ChT-L activity in a 96-well format, as above.

[3] = system: 20S core proteasome α face pockets; assay: Competition with Rpt C-terminal tail peptides for α face pockets (ChT-L activity); type: biochemical, human; details: Rpt peptide 1 μM added before TAT peptide; for Competition with Rpt tail peptides (in words, from radar plot scores): Rpt2 α3/α4, Rpt3 α1/α2, Rpt5 α5/α6, Rpt6 α2/α3 pocket, three to six experiments; for Enhanced (synergistic) activation with Rpt tail peptides (in words): Rpt5 or Rpt6 tails
Text: As mentioned above, the binding pockets on the α face accept “anchors” from natural protein ligands of the 20S core. […] The 10-residue Rpt-derived C-terminal “tail” peptides (“Rpt peptides”) can be used as competitors with the Rpt subunits or with small allosteric ligands. Importantly, the Rpt peptides interject between the subunits with their C-termini, whereas TAT peptides, according to the modeling, use their N-termini for this purpose. To test the specificity of interactions between TAT compounds and the α face, we performed competition experiments. The 20S core was challenged with selected TAT compounds after treatment with Rpt peptides. We selected peptides of Rpt2 ([…]), Rpt3 ([…]), Rpt5 ([…]) and Rpt6 […]) subunits, docking in α3/α4, α1/α2, α5/α6 and α2/α3 pockets, respectively. Tails of Rpt2, 3, and 5 display the canonical HbYX motif, whereas the LeuTrpLys C-terminus of Rpt6 may be considered “pseudo-HbYX”, with a bulky Trp replacing Tyr. Results of the competition experiments are presented as radar plots in Figure 7. […] This pocket also emerged as the major binding site for (1) and (8). However, these compounds likely weakly competed with the Rpt2 tail for binding to the α3/α4 pocket as well. The α3/α4 pocket seemed to be favored by (6). […] These complex patterns point at the importance of allosteric effects between the α face ligands, the gate and the catalytic chamber.
Figure 7 TAT1 derivatives competed with selected C-terminal tails of Rpt (Regulatory Particle ATPases) subunits for binding to specific α face pockets. The scores presented in radar plots were calculated as ((relative activation by the [x] and Rpt tail)-(theoretical sum of activation by [x] and Rpt tail))/(theoretical sum of activation by [x] and Rpt tail), where [x] represent any TAT peptide. […] The positive scores for combinations of selected compounds with Rpt5 or Rpt6 tails indicated a presumed synergy in activation of the core. Average scores derived from three to six experiments are presented. The competition effects were statistically significant (at least p < 0.05) for Rpt3 peptide and (1) and (8), as well as for Rpt2 peptide and (6).
Human housekeeping core (20S) proteasome purified from erythrocytes was purchased from Boston Biochem, Inc. (Cambridge, MA) or from Enzo Life Sciences, Inc. (Farmingdale, NY). Multiple batches of the proteasomes were used and performed reproducibly. The stock proteasome was diluted to 0.2 mg/mL working solution in “dilution buffer” (50 mM Tris/HCl, pH 8, 20% glycerol). The following model peptide substrates, all releasing fluorescent 7-amino-4-methylcoumarin (AMC) reporter group after cleavage, were used: succinyl-LeuLeuValTyr-AMC (for the ChT-L peptidase; SucLLVY-AMC; Bachem Bioscience Inc., Philadelphia, PA), butoxycarbonyl-LeuArgArg-AMC (T-L; Bachem Bioscience Inc., Philadelphia, PA) and carbobenzoxy- LeuLeuGlu-AMC (PGPH; Enzo Life Sciences Inc., Farmingdale, NY). The substrates were used at concentration of 50 μM (ChT-L) or 100 μM (T-L, PGPH). Free AMC (Sigma-Aldrich, St. Louis, MO) was used as the standard. The C-terminal peptides derived from Rpt2, Rpt3, Rpt5 and Rpt6 were synthesized (standard solid-phase peptide chemistry) and purified to at least 98% purity by GenScript (Piscataway, NJ). The TAT peptides, Rpt peptides (except Rpt6) and the peptide substrates were dissolved in anhydrous dimethylsulfoxide (DMSO; Sigma-Aldrich, St. Louis, MO) and such stock solutions were stored at −20 °C. The total concentration of DMSO in final reaction mixtures never exceeded 3% (vol/vol). The Trp (tryptophan) -containing Rpt6 peptide was dissolved in ultrapure water and stored at −20 °C, protected from light. […]

Row | Compound | Proteins with increased turnover on treatment [1] | Proteasome ChT-L activity in lysates of treated cells versus control lysates (in words) [2] | Dose dependent proteasome activation, 4 h versus 24 h exposure (in words) ([2]; 0.5 or 1.0 µM, 4 or 24 h) | Competition with Rpt tail peptides (in words, from radar plot scores) [3] | Enhanced (synergistic) activation with Rpt tail peptides (in words) [3]
1 | N=C(N)NCCC[C@H](NC(=O)CN)C(=O)N[C@@H](CCCCN)C(=O)N[C@@H](CCCCN)C(=O)N[C@@H](CCCNC(=N)N)C(=O)N[C@@H](CCCNC(=N)N)C(=O)N[C@@H](CCC(N)=O)C(=O)N1Cc2ccccc2C[C@H]1C(=O)N1[C@@H](C(=O)N[C@@H](CCCNC(=N)N)C(=O)N2CCC[C@H]2C(=O)N[C@@H](CO)C(=O)O)C[C@H]2CCCC[C@H]21 [(5)] | APP and β secretase | significantly higher than activity in control lysates | substantially stronger after 4 h exposure than after 24 h | competed fairly specifically with Rpt3 tail | enhanced activation in the presence of one of Rpt tails, namely Rpt5 or Rpt6
2 | NCCCC[C@H](NC(=O)[C@H](CCCCN)NC(=O)[C@H](CCCCN)NC(=O)c1cc(NC(=O)[C@H](CCCCN)NC(=O)[C@H](CCCCN)NC(=O)[C@@H](N)CCCCN)cc(NC(=O)[C@H](CCCCN)NC(=O)[C@H](CCCCN)NC(=O)[C@@H](N)CCCCN)c1)C(=O)O [(8)] | APP and β secretase | significantly higher than activity in control lysates |  | added a weakly negative score for the Rpt2 tail to the presumed major competitor Rpt3 | enhanced activation in the presence of one of Rpt tails, namely Rpt5 or Rpt6
